Experimental data: patent publication US8530461B2 (Boehringer Ingelheim International GmbH, priority 2011, dated 2013)

These compounds were tested against T1, human ACC2 (Homo sapiens, UniProt O00763) (assay: ACC2 assay, spectrophotometric 384 well assay (NADH-linked, coupled lactate dehydrogenase/pyruvate kinase)). Conditions: ACC2 assay; human ACC2 construct lacking 128 N-terminal amino acids; 25° C., 340 nm, 15 minutes; read-out: IC50.
T1 construct: made in house; host or cells: insect cells (baculoviral expression system)
Type: biochemical
Experimental: Spectrophotometric 384 Well Assay
Malonyl CoA formation by acetyl CoA carboxylases is stoichometrically linked to the consumption of ATP. ACC2 activity is measured in a NADH-linked kinetic method measuring ADP generated during the ACC reaction using a coupled lactate dehydrogenase/pyruvate kinase reaction.
For biological testing, a human ACC2 construct which lacks the 128 amino acids at the N-terminus for increased solubility (nt 385-6966 in Genbank entry AJ575592) is cloned. The protein is then expressed in insect cells using a baculoviral expression system. Protein purification is performed by anion exchange.
All compounds are dissolved in dimethyl sulfoxide (DMSO) to a concentration of 10 mM.
Assay reactions are then carried out in 384-well plates, with hACC2 in an appropriate dilution and at final assay concentrations (f.c.) of 100 mM Tris (pH 7.5), 10 mM trisodium citrate, 25 mM KHCO3, 10 mM MgCl2, 0.5 mg/ml BSA, 3.75 mM reduced L-glutathione, 15 U/ml lactate dehydrogenase, 0.5 mM phosphoenolpyruvate, 15 U/ml pyruvate kinase, compounds at different concentrations at final DMSO concentrations of 1%.
The enzymatic reaction is then started by addition of a mixture of NADH, acetyl Coenzyme A (both […].) and ATP (500 uM f.c.). The decrease of the optical density (slope S) is then determined at 25° C. at a wavelength of 340 nm over 15 minutes in a spectrophotometric reader.
Each assay microtiter plate contains wells with vehicle instead of compound as controls for the non-inhibited enzyme (100% CTL; ‘HIGH’) and wells without acetyl-CoA as controls for non-specific NADH degradation (0% CTL; ‘LOW’).
The slope S is used for calculation of % CTL=(S(compound)−S(‘LOW’))/(S(‘HIGH’)−S(‘LOW’))100. Compounds will give values between 100% CTL (no inhibition) and 0% CTL (complete inhibition).
For IC50 value determination, the sample slope in the presence of the test compound after subtraction of the low controls (S(compound)−S(‘LOW’)) are used.
An IC50 value is derived from the compound slopes at different dosages after subtraction of the low controls (S(compound)−S(‘LOW’)) by non-linear regression curve fitting (equation y=(A+((B−A)/(1+((C/x)^D))))).

T1 sequence (O00763 129-2458 limits assumed): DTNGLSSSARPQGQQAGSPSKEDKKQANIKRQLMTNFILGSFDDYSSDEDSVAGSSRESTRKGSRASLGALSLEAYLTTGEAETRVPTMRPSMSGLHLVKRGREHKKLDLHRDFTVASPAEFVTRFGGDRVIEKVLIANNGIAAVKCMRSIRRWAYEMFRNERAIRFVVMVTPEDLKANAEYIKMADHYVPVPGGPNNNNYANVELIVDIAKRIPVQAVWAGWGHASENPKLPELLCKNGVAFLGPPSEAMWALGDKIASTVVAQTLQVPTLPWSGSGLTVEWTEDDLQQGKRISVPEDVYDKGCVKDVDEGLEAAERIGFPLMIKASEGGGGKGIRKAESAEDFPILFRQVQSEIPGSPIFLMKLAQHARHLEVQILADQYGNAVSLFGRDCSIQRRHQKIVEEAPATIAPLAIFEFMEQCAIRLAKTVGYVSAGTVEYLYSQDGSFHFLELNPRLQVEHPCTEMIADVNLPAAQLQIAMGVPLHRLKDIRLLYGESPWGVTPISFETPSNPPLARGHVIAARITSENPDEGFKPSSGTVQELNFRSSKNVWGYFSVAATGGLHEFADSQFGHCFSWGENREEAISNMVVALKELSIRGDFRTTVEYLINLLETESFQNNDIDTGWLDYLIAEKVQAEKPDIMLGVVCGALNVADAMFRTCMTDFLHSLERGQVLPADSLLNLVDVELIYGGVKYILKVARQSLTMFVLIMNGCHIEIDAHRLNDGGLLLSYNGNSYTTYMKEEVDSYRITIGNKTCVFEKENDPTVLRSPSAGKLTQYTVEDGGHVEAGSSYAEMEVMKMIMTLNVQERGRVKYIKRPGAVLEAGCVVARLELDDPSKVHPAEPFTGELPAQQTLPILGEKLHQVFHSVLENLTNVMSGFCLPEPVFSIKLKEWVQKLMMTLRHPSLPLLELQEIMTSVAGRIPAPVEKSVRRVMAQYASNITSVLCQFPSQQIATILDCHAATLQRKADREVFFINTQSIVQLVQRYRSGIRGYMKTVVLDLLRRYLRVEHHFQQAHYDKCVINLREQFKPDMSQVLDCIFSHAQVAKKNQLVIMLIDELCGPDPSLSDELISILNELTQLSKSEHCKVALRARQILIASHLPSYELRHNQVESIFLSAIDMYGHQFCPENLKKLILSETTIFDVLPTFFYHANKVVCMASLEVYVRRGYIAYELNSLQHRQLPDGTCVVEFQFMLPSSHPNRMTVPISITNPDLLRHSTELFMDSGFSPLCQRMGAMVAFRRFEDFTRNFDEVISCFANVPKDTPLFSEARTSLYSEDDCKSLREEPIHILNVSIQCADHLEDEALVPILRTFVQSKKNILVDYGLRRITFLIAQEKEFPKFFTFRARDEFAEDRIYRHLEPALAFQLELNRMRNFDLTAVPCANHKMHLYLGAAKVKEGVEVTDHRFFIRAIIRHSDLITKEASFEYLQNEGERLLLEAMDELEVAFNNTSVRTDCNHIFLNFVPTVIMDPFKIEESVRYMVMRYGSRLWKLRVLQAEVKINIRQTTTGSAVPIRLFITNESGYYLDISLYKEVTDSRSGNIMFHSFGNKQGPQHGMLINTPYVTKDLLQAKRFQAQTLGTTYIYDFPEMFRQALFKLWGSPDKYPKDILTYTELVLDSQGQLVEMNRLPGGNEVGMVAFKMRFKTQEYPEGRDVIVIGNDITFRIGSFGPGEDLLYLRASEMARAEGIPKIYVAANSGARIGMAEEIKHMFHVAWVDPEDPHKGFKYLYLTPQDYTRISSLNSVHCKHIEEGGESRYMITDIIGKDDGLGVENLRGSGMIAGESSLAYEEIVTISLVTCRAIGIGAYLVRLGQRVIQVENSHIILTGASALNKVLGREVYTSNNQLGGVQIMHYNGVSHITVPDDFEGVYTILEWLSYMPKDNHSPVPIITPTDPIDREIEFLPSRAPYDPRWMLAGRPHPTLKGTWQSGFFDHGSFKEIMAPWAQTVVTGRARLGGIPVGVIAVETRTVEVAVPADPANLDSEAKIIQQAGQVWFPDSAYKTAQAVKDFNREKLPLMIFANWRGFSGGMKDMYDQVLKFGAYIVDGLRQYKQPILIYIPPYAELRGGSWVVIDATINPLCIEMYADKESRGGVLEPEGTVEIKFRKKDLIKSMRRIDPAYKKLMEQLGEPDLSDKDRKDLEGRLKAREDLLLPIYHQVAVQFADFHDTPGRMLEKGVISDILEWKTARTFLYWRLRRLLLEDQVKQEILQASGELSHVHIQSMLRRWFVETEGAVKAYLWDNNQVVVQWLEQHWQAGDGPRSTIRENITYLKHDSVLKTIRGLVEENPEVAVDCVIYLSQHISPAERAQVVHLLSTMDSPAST

SMILES	IC50
CCOc1ccc(OC2CN(c3ccc([C@H](C)NC4=CC(=O)OC4)cc3)C2)cc1 [Example 5.1, (S)-4-(1-{4-[3-(4-Ethoxy-phenoxy)-azetidin-1-yl]-phenyl}-ethylamino)-5H-furan-2-one]	340 nM
CC(=O)N[C@@H](C)c1ccc(N2CC(Oc3ccc(C(C)(C)C)cc3)C2)cc1 [Example 6.1, (S)—N-(1-{4-[3-(4-tert-Butyl-phenoxy)-azetidin-1-yl]-phenyl}-ethyl)-acetamide]	260 nM
CCOc1ccc(OC2CN(c3ccc([C@H](C)NC(C)=O)cc3)C2)c(F)c1 [Example 7.1, (S)—N-(1-{4-[3-(4-Ethoxy-2-fluoro-phenoxy)-azetidin-1-yl]-phenyl}-ethyl)-acetamide]	120 nM
CCOc1ccc(OC2CN(c3ccc([C@H](C)NC(=O)C4CC4)cc3)C2)c(F)c1 [Example 7.2, (S)-Cyclopropanecarboxylic acid (1-{4-[3-(4-ethoxy-2-fluoro-phenoxy)-azetidin-1-yl]-phenyl}-ethyl)-amide]	2420 nM
CCOc1ccc(OC2CN(c3ccc([C@H](C)NC(=O)N(C)C)cc3)C2)c(F)c1 [Example 8.1, (S)-3-(1-{4-[3-(4-Ethoxy-2-fluoro-phenoxy)-azetidin-1-yl]-phenyl}-ethyl)-1,1-dimethyl-urea]	250 nM
CCOc1ccc(OC2CN(c3ccc([C@H](C)NC(=O)c4cn[nH]c4)cc3)C2)c(F)c1 [Example 8.2, (S)-1H-Pyrazole-4-carboxylic acid (1-{4-[3-(4-ethoxy-2-fluoro-phenoxy)-azetidin-1-yl]-phenyl}-ethyl)-amide]	2980 nM
C[C@H](NC(=O)OC(C)(C)C)c1ccc(N2CC(Oc3ccc(OCC4CC4)cc3)C2)cc1 [Example 8.3, (S)-(1-{4-[3-(4-Cyclopropylmethoxy-phenoxy)-azetidin-1-yl]-phenyl}-ethyl)-carbamic acid tert-butyl ester]	1370 nM
CCOc1ccc(OC2CN(c3ccc([C@H](C)NC(=O)c4sc(NC(C)=O)nc4C)cc3)C2)c(F)c1 [Example 8.4, (S)-2-Acetylamino-4-methyl-thiazole-5-carboxylic acid (1-{4-[3-(4-ethoxy-2-fluoro-phenoxy)-azetidin-1-yl]-phenyl}-ethyl)-amide]	110 nM
CC(=O)N[C@@H](C)c1ccc(N2CC(Oc3ccc(OCc4ccccc4)cc3)C2)cc1 [Example 8.5, (S)—N-(1-{4-[3-(4-Benzyloxy-phenoxy)-azetidin-1-yl]-phenyl}-ethyl)-acetamide]	140 nM
CCOc1ccc(OC2CN(c3ccc(C(C)NC(C)=O)cn3)C2)cc1 (stereo not shown) [Example 8.6, N-(1-{6-[3-(4-Ethoxy-phenoxy)-azetidin-1-yl]-pyridin-3-yl}-ethyl)-acetamide]	170 nM
CC(=O)N[C@@H](C)c1ccc(N2CC(Oc3cc(OCc4ccccc4)ccn3)C2)cc1 [Example 8.7, (S)—N-(1-{4-[3-(4-Benzyloxy-pyridin-2-yloxy)-azetidin-1-yl]-phenyl}-ethyl)-acetamide]	2240 nM
CC(=O)N[C@@H](C)c1ccc(N2CC(Oc3ccc(C(F)(F)F)cn3)C2)cc1 [Example 8.8, (S)—N-(1-{4-[3-(5-Trifluoromethyl-pyridin-2-yloxy)-azetidin-1-yl]-phenyl}-ethyl)-acetamide]	810 nM
CC(=O)N[C@@H](C)c1ccc(N2CC(Oc3ccc(OC(C)C)cc3)C2)cc1 [Example 9.1, (S)—N-(1-{4-[3-(4-Isopropoxy-phenoxy)-azetidin-1-yl]-phenyl}-ethyl)-acetamide]	70 nM
CCOc1ccc(OC2CN(c3ccc([C@H](C)NC(C)=O)cc3)C2)cc1 [Example 9.2]	90 nM
CCCOc1ccc(OC2CN(c3ccc([C@H](C)NC(C)=O)cc3)C2)cc1 [Example 9.3]	50 nM
CC(=O)N[C@@H](C)c1ccc(N2CC(Oc3ccc(OC4CCC4)cc3)C2)cc1 [Example 9.4]	40 nM
CC(=O)N[C@@H](C)c1ccc(N2CC(Oc3ccc(OCC4CC4(F)F)cc3)C2)cc1 (stereo partly shown) [Example 9.5]	40 nM
CC(=O)N[C@@H](C)c1ccc(N2CC(Oc3ccc(C)c(F)c3F)C2)cc1 [Example 10.1, (S)—N-(1-{4-[3-(2,3-Difluoro-4-methyl-phenoxy)-azetidin-1-yl]-phenyl}-ethyl)-acetamide]	1280 nM
CC(=O)N[C@@H](C)c1ccc(N2CC(Oc3ccc(OC(F)(F)F)cc3)C2)cc1 [Example 10.2]	780 nM
CC(=O)N[C@@H](C)c1ccc(N2CC(Oc3ccc(-n4cccc4)cc3Cl)C2)cc1 [Example 10.3]	910 nM
COc1ccc(OC2CN(c3ccc([C@H](C)NC(C)=O)cc3)C2)c(F)c1 [Example 10.4]	280 nM
CC(=O)N[C@@H](C)c1ccc(N2CC(Oc3ccc(OC(C)(C)C)cc3)C2)cc1 [Example 10.5]	640 nM
CCOc1cc(F)c(OC2CN(c3ccc([C@H](C)NC(C)=O)cc3)C2)c(F)c1 [Example 10.6]	330 nM
CCOc1ccc(OC2CN(c3ccc([C@H](C)NC(C)=O)cc3)C2)c(F)c1F [Example 10.7]	200 nM
COc1ccc(OC2CN(c3ccc([C@H](C)NC(C)=O)cc3)C2)cn1 [Example 10.8]	740 nM
CCC(C)c1ccc(OC2CN(c3ccc([C@H](C)NC(C)=O)cc3)C2)cc1 (stereo partly shown) [Example 10.10]	120 nM

SMILES	IC50
CC(=O)N[C@@H](C)c1ccc(N2CC(Oc3ccc4oc(C)cc4c3)C2)cc1 [Example 10.11]	100 nM
CC(=O)N[C@@H](C)c1ccc(N2CC(Oc3ccccc3)C2)cc1 [Example 10.12]	790 nM
CC(=O)N[C@@H](C)c1ccc(N2CC(Oc3ccc4c(c3)OCO4)C2)cc1 [Example 10.13]	320 nM
CC(=O)N[C@@H](C)c1ccc(N2CC(Oc3ccc(C)cc3)C2)cc1 [Example 10.14]	610 nM
CC(=O)N[C@@H](C)c1ccc(N2CC(Oc3ccccc3C)C2)cc1 [Example 10.15]	950 nM
CC(=O)N[C@@H](C)c1ccc(N2CC(Oc3ccc(Cl)cc3F)C2)cc1 [Example 10.16]	2230 nM
CC(=O)N[C@@H](C)c1ccc(N2CC(Oc3cc(C(F)(F)F)ccc3F)C2)cc1 [Example 10.17]	110 nM
COc1ccc(OC2CN(c3ccc([C@H](C)NC(C)=O)cc3)C2)c(F)c1F [Example 10.18]	560 nM
COCCOc1ccc(OC2CN(c3ccc([C@H](C)NC(C)=O)cc3)C2)cc1 [Example 10.19]	140 nM
C[C@H](NC(=O)C1CC1)c1ccc(N2CC(Oc3ccc(OC(F)(F)F)cc3)C2)cc1 [Example 10.20]	4400 nM
COc1ccc(OC2CN(c3ccc([C@H](C)NC(=O)C4CC4)cc3)C2)c(F)c1 [Example 10.21]	3990 nM
C[C@H](NC(=O)C1CC1)c1ccc(N2CC(Oc3ccc(OC(C)(C)C)cc3)C2)cc1 [Example 10.22]	1270 nM
CCOc1cc(F)c(OC2CN(c3ccc([C@H](C)NC(=O)C4CC4)cc3)C2)c(F)c1 [Example 10.23]	130 nM
CCOc1ccc(OC2CN(c3ccc([C@H](C)NC(=O)C4CC4)cc3)C2)c(F)c1F [Example 10.24]	2260 nM
COc1ccc(OC2CN(c3ccc([C@H](C)NC(=O)C4CC4)cc3)C2)cn1 [Example 10.25]	3370 nM
CCC(C)c1ccc(OC2CN(c3ccc([C@H](C)NC(=O)C4CC4)cc3)C2)cc1 (stereo partly shown) [Example 10.26]	370 nM
Cc1cc2cc(OC3CN(c4ccc([C@H](C)NC(=O)C5CC5)cc4)C3)ccc2o1 [Example 10.27]	170 nM
C[C@H](NC(=O)C1CC1)c1ccc(N2CC(Oc3ccc4c(c3)OCO4)C2)cc1 [Example 10.28]	2080 nM
COc1ccc(OC2CN(c3ccc([C@H](C)NC(C)=O)cc3)C2)c(Cl)c1 [Example 10.29]	570 nM
CCOc1c(F)cc(OC2CN(c3ccc([C@H](C)NC(=O)C4CC4)cc3)C2)cc1F [Example 10.30]	1560 nM
CCOc1c(F)cc(OC2CN(c3ccc([C@H](C)NC(C)=O)cc3)C2)cc1F [Example 10.31]	300 nM
COc1ccc(OC2CN(c3ccc([C@H](C)NC(C)=O)cc3)C2)cn1 [Example 10.32]	730 nM
CC(=O)N[C@@H](C)c1ccc(N2CC(Oc3ccnc(OCC4CC4)c3)C2)cc1 [Example 11.1, (S)—N-(1-{4-[3-(2-Cyclopropylmethoxy-pyridin-4-yloxy)-azetidin-1-yl]-phenyl}-ethyl)-acetamide]	80 nM
CC(=O)N[C@@H](C)c1ccc(N2CC(Oc3ccnc(O[C@@H]4CCOC4)c3)C2)cc1 [Example 11.2]	270 nM
CC(=O)N[C@@H](C)c1ccc(N2CC(Oc3ccnc(OCC(C)C)c3)C2)cc1 [Example 11.3]	60 nM
CC(=O)N[C@@H](C)c1ccc(N2CC(Oc3ccnc(OCC4CC4(F)F)c3)C2)cc1 (stereo partly shown) [Example 11.5]	100 nM
